This note sets out measurements from ChEMBL document CHEMBL1150909, “Magnone A and B, novel anti-PAF tetrahydrofuran lignans from the flower buds of Magnolia fargesii” (J Nat Prod, 1998).

pIC50: −log10 of the molar value.

The species named for assay [1] is Oryctolagus cuniculus. The experiment in a line: Displacement of [3H]PAF from rabbit PAF receptor at 100 uM by liquid scintillation counting. (In general: Loss of bound radioactivity is the signal in a displacement assay; it reports binding, not function.)
The nature of assay [2]: Displacement of [3H]PAF from rabbit PAF receptor by liquid scintillation counting. Set-up: species or system Oryctolagus cuniculus.
For assay [3], the species on record is Oryctolagus cuniculus. Kind of assay: Displacement of [3H]PAF from rabbit PAF receptor at 25 uM by liquid scintillation counting.
The species named for assay [4] is Oryctolagus cuniculus. Kind of assay: Displacement of [3H]PAF from rabbit PAF receptor at 12.5 uM by liquid scintillation counting.
The species named for assay [5] is Oryctolagus cuniculus. The experiment in a line: Displacement of [3H]PAF from rabbit PAF receptor at 50 uM by liquid scintillation counting.

A word on the pIC50: it is the IC50 on a negative log10 scale, so that one unit is a factor of ten. For the compound `COc1ccc(C(=O)[C@H]2CO[C@H](c3cc(OC)c(OC)c(OC)c3)[C@H]2CO)cc1OC` [MAGNONE B], the Activity was found to be 81.7% in the assay listed under Oryctolagus cuniculus [1], 42.9% in the assay listed under Oryctolagus cuniculus [3], 37.1% in the assay filed under Oryctolagus cuniculus [4] and 64.3% in the assay filed under Oryctolagus cuniculus [5]. Further, the pIC50 in assay [2] is 4.57.
In turn, `C[C@@H]1C(=O)O[C@H]2[C@H](O)[C@@]34[C@H]5C[C@@H](C(C)(C)C)[C@]36[C@@H](OC(=O)[C@@H]6O)O[C@@]4(C(=O)O5)[C@@]12O` [GINKOLIDE B] showed a pIC50 in assay [2] of 4.72.
Consider `COc1ccc(C(=O)[C@H]2CO[C@H](c3ccc(OC)c(OC)c3)[C@H]2CO)cc1OC` [MAGNONE A], for which the Activity in the assay filed under Oryctolagus cuniculus [1] was 75.2%; in the assay listed under Oryctolagus cuniculus [3], 41.6%; in the assay filed under Oryctolagus cuniculus [4], 19.4%; in the assay filed under Oryctolagus cuniculus [5] it was 56.7%. The same compound showed a pIC50 in assay [2] of 4.42.
